Where “and” joins values, the source holds several entries; their conditions need not be identical. Equal entries are not always repeated.
Experiments:
[1] = tested on: Donor 1 GMA Expanded T-Cell Lines (222-AG11, 222-AG12, 222-BA11, 222-BC11); test: ATP proliferation assay (CellTiter Glo), Donor 1 GMA expanded T-cell lines, incl. reactivity to non-canonical GA peptides; format: cell-based, human; settings: for Non-Canonical Peptide Non-Reactivity: 222-AG12, proliferation <2 times no antigen control; for Nonreactive T-Cell Line: Donor 1 GMA expanded lines, stimulation with the non-canonical GA peptide; for Proliferation (luminescent ATP assay), Mean: T-cell line 222-AG12, autologous B-LCL
Description: (§1) Proliferation was evaluated by measuring ATP content using a luminescent method (CellTiter Glo Luminescent Cell Viability Assay, Promega, Madison, Wis., cat. #G7571) or by measuring BrdU uptake by ELISA (Millipore cat. #2752), in both cases following kit instructions. A split well format was used. Cells in each well were resuspended and 65 μl transferred to the wells of each of two new U-bottom 96-well plates, to generate the replicate plates. For the initial screening, the original 96-well plate received mitomycin-treated autologous PBMC as APC plus 10 μg/mL antigen (GA). A first replicate plate received 100 μl., mitomycin-treated PBMC alone (2×10^5), and no antigen, and a second replicate plate received 100 μL mitomycin-treated PBMC plus GA at a final concentration of 10 μg/mL. Therefore, all three plates received autologous APC (PBMC) treated with mitomycin C to prevent cell division. […] The latter two plates were incubated for 3 days at 37° C., 6% CO2 before adding CellTiter Glo or BrdU and measuring signal. IL-2 was added at 10 U/mL to the original 96-well plate for expansion on Day 17. For subsequent screenings, mitomycin-treated EBV-transformed autologous B-LCL (2×10^5 to 5×10^5 cells/mL) were used as APC.
On Day 24, cells from the wells corresponding to the eight presumptive GA-specific human T-cell lines listed in Table 4 were transferred to a 24-well plate and expanded by stimulating with 10 μg/mL GMA and mitomycin-treated autologous PBMC as APC (3×10^6 per well, i.e., 1.5×10^6/mL). On Day 32 four of the eight lines, 222-BA11, 222-BC11, 222-AG11, and 222-AG12, were stimulated with 0, 1, 10 and 100 μg/mL GMA and tested in a 96-well plate for a proliferative response to GMA using an ATP assay, again using autologous PBMC as APC (2×10^5 per well, i.e., 1×10^6/mL). […] FIGS. 2A and B show the results of the ATP proliferation assay carried out using 222-AG12, 222-BC11, 222-AG11, and 222-BA11 at Day 35 (control=no antigen). FIGS. 3A-C compare the results of ATP proliferation assays carried out after stimulation with varying concentrations of GMA or Copaxone as indicated, using cell lines 222-BA11, 222-BC11, and 222-AG12.
Donor 1 GMA T-cell line 222-AG12 was assayed for proliferation following stimulation with 0, 1, 10, and 30 μg/mL each of peptides GLT 631, GAT 631, GAT 111, LT 11, GT 11, GL 14, COP, and GMA, at a T-cell concentration of 2×10^5 cells/mL, in the presence of mitomycin C-treated autologous B-LCL. Line 222-AG12 was assayed after 3 rounds of restimulation (4 total stimulations). Proliferation was measured by luminescent ATP assay.

[2] = tested on: Donor 1 COP T-Cell Lines; test: ATP proliferation assay (CellTiter Glo), Donor 1 COP T-cell lines, incl. reactivity to non-canonical GA peptides; format: cell-based, human; settings: for luminescent ATP proliferation assay, mean: no antigen 5673 (Table 9); for Non-Canonical Peptide Non-Reactivity: proliferation <2 times no antigen control; for Nonreactive T-Cell Line: stimulation with the non-canonical GA peptide; for ATP Proliferation Assay, Mean: Day 56, second assay; for Proliferation (luminescent ATP assay), Mean: Day 56 of culturing
Description: as §1
COP-responsive T-cell lines were obtained from Donor 1. In the initial stimulation, isolated PBMC were plated at 1×10^5 cells per well (5×10^5 cells/mL) with 10 μg/mL Copaxone and cultured as described above. IL-2 was added to all wells on Days 4 and 7 of culture, and the wells screened for reactivity on Day 14 using a luminescent proliferation assay in split well format. The original plate was restimulated, and IL-2 added 4 days after restimulation.
(§2) T-cell line 222-2D8, generated from Donor 1 by initial stimulation with COP, was shown in at least two experiments to proliferate comparably following restimulation with GMA and COP. […] ATP levels were measured at 48 hours after stimulation. The control in the GMA series was no antigen, and the control in the COP series was MBP. The response to GMA in comparison to COP at the 10 μg/mL dose in this assay was 103.4%.
In a second ATP proliferation assay, carried out on Day 56 or culturing following stimulation with 1, 3, or 10 μg/mL of GMA or COP, the response to GMA in comparison to COP at the 10 μg/mL dose was 107.1%.
as §2, with “line 222-2F1,” for “line 222-2D8,”, “Donor 222” for “Donor 1”, “was 85.1%.” for “was 103.4%.”
On Day 56 of culturing, after six total rounds of stimulation, cell line 222-2F12 was assayed for proliferation in response to stimulation with GA and a series of non-canonical peptides. For the assay, 0, 3, 10, or 30 μg/mL of each of peptides GL 14, GLT 631, GAT 111, and GAT 631, COP, and GMA, were added to the T-cell lines at 1×10^5 cells/mL, in the presence of mitomycin C-treated autologous B-LCL. Proliferation was measured by luminescent ATP assay. Cell line 222-2F12 responded to GL 14 at 3 μg/mL, and not to the other non-canonical GA peptides tested. The response to GMA in comparison to COP at the 10 μg/mL dose in this assay was 99.4%.
The cultures were restimulated on days 46, 56, 67 and 75. On Day 56, cell lines 222-2D8, 222-1H12, 222-2F12, 222-2B8, 222-105, 222-2B11, and 222-2E1 again were tested for reactivity to stimulation with 1, 3, or 10 μg/mL of GMA or COP in a proliferation assay. ATP levels were measured in all seven cell lines at 48 hours (results in FIGS. 5A-G) after stimulation. The control in the GMA series was no antigen, and the control in the COP series was MBP. […]

## poly (Glu-Lys-Tyr; 6:3:1) [GLT 631]
[1]
  Non-Canonical Peptide Non-Reactivity: GLT 631
  Nonreactive T-Cell Line: 222-AG12 (Donor 1)
[1]; 1 ug/mL antigen
  Proliferation (luminescent ATP assay), Mean: 3801 RLU
[1]; 10 ug/mL antigen
  Proliferation (luminescent ATP assay), Mean: 4002 RLU
[1]; 30 ug/mL antigen
  Proliferation (luminescent ATP assay), Mean: 5292 RLU
[2]; 222-1H12, Day 56, 0, 3, 10, 30 μg/mL
  proliferation response to non-canonical GA peptides: responded
[2]; 222-2F12, Day 56, 3 μg/mL
  luminescent ATP proliferation assay, mean: 5277
[2]; 222-2F12, Day 56, 10 μg/mL
  luminescent ATP proliferation assay, mean: 4934
[2]; 222-2F12, Day 56, 30 μg/mL
  luminescent ATP proliferation assay, mean: 5217
[2]; 222-2F12
  Non-Canonical Peptide Non-Reactivity: GLT 631
[2]; Donor 1 COP lines, at least a 50% increase in proliferation relative to a control after stimulation with the non-canonical GA peptide
  Reactive T-Cell Line: 222-1H12 (Donor 1)
[2]; Donor 1 COP lines
  Nonreactive T-Cell Line: 222-2F12 (Donor 1)

## glatiramer acetate [COP]
[1]; 1 ug/mL antigen
  Proliferation (luminescent ATP assay), Mean: 10056 RLU
[1]; 10 ug/mL antigen
  Proliferation (luminescent ATP assay), Mean: 233083 RLU
[1]; 30 ug/mL antigen
  Proliferation (luminescent ATP assay), Mean: 227055 RLU
[2]; 222-1C5, 10 μg/mL, Day 14, control 7087
  ATP proliferation assay: 14906 RLU
[2]; 222-1F8, 10 μg/mL, Day 14, control 2308
  ATP proliferation assay: 6519 RLU
[2]; 222-1G8, 10 μg/mL, Day 14, control 4030
  ATP proliferation assay: 8308 RLU
[2]; 222-1H12, 10 μg/mL, Day 14, control 8141
  ATP proliferation assay: 23836 RLU
[2]; 222-2B8, 10 μg/mL, Day 14, control 5543
  ATP proliferation assay: 13600 RLU
[2]; 222-2B11, 10 μg/mL, Day 14, control 6340
  ATP proliferation assay: 16460 RLU
[2]; 222-2C1, 10 μg/mL, Day 14, control 8350
  ATP proliferation assay: 20166 RLU
[2]; 222-2C3, 10 μg/mL, Day 14, control 6839
  ATP proliferation assay: 14045 RLU
[2]; 222-2C5, 10 μg/mL, Day 14, control 4695
  ATP proliferation assay: 9577 RLU
[2]; 222-2D2, 10 μg/mL, Day 14, control 7135
  ATP proliferation assay: 16271 RLU
[2]; 222-2D8, 10 μg/mL, Day 14, control 13024
  ATP proliferation assay: 26495 RLU
[2]; 222-2D8, 1 μg/mL (Table 7)
  ATP Proliferation Assay, Mean: 7229
[2]; 222-2D8, 3 μg/mL (Table 7)
  ATP Proliferation Assay, Mean: 134127
[2]; 222-2D8, 10 μg/mL (Table 7)
  ATP Proliferation Assay, Mean: 146092
[2]; 222-2D8, Day 56, 48 hours after stimulation, 1 μg/mL (Table 6)
  ATP proliferation assay: 4888
[2]; 222-2D8, Day 56, 48 hours after stimulation, 3 μg/mL (Table 6)
  ATP proliferation assay: 6392
[2]; 222-2D8, Day 56, 48 hours after stimulation, 10 μg/mL (Table 6)
  ATP proliferation assay: 12161
[2]; 222-2E1, 10 μg/mL, Day 14, control 8035
  ATP proliferation assay: 17064 RLU
[2]; 222-2F12, 10 μg/mL, Day 14, control 9703
  ATP proliferation assay: 28022 RLU
[2]; 222-2F12, Day 56, 3 μg/mL
  luminescent ATP proliferation assay, mean: 233087
[2]; 222-2F12, Day 56, 10 μg/mL
  luminescent ATP proliferation assay, mean: 230009
[2]; 222-2F12, Day 56, 30 μg/mL
  luminescent ATP proliferation assay, mean: 118769
[2]; 222-2F12, Day 56, 48 hours after stimulation, 1 μg/mL (Table 8)
  ATP proliferation assay: 5281
[2]; 222-2F12, Day 56, 48 hours after stimulation, 3 μg/mL (Table 8)
  ATP proliferation assay: 8684
[2]; 222-2F12, Day 56, 48 hours after stimulation, 10 μg/mL (Table 8)
  ATP proliferation assay: 11747
[2]; 222-2G4, 10 μg/mL, Day 14, control 2566
  ATP proliferation assay: 6812 RLU
[2]; 222-2G12, 10 μg/mL, Day 14, control 3913
  ATP proliferation assay: 9899 RLU
[2]; T-cell line 222-1H12, 3 μg/mL antigen, 0 μg/mL 5974
  Proliferation (luminescent ATP assay), Mean: 146874 RLU
[2]; T-cell line 222-1H12, 10 μg/mL antigen, 0 μg/mL 5974
  Proliferation (luminescent ATP assay), Mean: 168163 RLU
[2]; T-cell line 222-1H12, 30 μg/mL antigen, 0 μg/mL 5974
  Proliferation (luminescent ATP assay), Mean: 68492 RLU
[2]; T-cell line 222-2F12, 3 μg/mL antigen, 0 μg/mL 5673
  Proliferation (luminescent ATP assay), Mean: 233087
[2]; T-cell line 222-2F12, 10 μg/mL antigen, 0 μg/mL 5673
  Proliferation (luminescent ATP assay), Mean: 230009
[2]; T-cell line 222-2F12, 30 μg/mL antigen, 0 μg/mL 5673
  Proliferation (luminescent ATP assay), Mean: 118769
[2]; fifteen Donor 1 COP T-cell lines of Table 5, 10 μg/mL
  ATP proliferation signal relative to control: at least twice the signal as control

## poly (Glu-Ala-Tyr; 1:1:1) [GAT 111]
[1]
  Non-Canonical Peptide Non-Reactivity: GAT 111
  Nonreactive T-Cell Line: 222-AG12 (Donor 1)
[1]; 1 ug/mL antigen
  Proliferation (luminescent ATP assay), Mean: 3391 RLU
[1]; 10 ug/mL antigen
  Proliferation (luminescent ATP assay), Mean: 2568 RLU
[1]; 30 ug/mL antigen
  Proliferation (luminescent ATP assay), Mean: 2245 RLU
[2]; 222-2F12, Day 56, 3 μg/mL
  luminescent ATP proliferation assay, mean: 3914
[2]; 222-2F12, Day 56, 10 μg/mL
  luminescent ATP proliferation assay, mean: 3590
[2]; 222-2F12, Day 56, 30 μg/mL
  luminescent ATP proliferation assay, mean: 2430
[2]; 222-2F12
  Non-Canonical Peptide Non-Reactivity: GAT 111
[2]; Donor 1 COP lines
  Nonreactive T-Cell Line: 222-2F12 (Donor 1) and 222-1H12 (Donor 1)

## poly (Lys-Tyr; 1:1) [LT 11]
[1]
  Non-Canonical Peptide Non-Reactivity: LT 11
  Nonreactive T-Cell Line: 222-AG12 (Donor 1)
[1]; 1 ug/mL antigen
  Proliferation (luminescent ATP assay), Mean: 3452 RLU
[1]; 10 ug/mL antigen
  Proliferation (luminescent ATP assay), Mean: 4242 RLU
[1]; 30 ug/mL antigen
  Proliferation (luminescent ATP assay), Mean: 2347 RLU

## poly (Glu-Tyr; 1:1) [GT 11]
[1]
  Non-Canonical Peptide Non-Reactivity: GT 11
  Nonreactive T-Cell Line: 222-AG12 (Donor 1)
[1]; 1 ug/mL antigen
  Proliferation (luminescent ATP assay), Mean: 2650 RLU
[1]; 10 ug/mL antigen
  Proliferation (luminescent ATP assay), Mean: 3285 RLU
[1]; 30 ug/mL antigen
  Proliferation (luminescent ATP assay), Mean: 2231 RLU

From patent US9995734B2, “Human T cell line assay for evaluating the immunologic identity of glatiramer acetate preparations” (Mylan Inc., priority 2013, dated 2018)
